Tests used:
[1] = system: Tyrosine-protein kinase ABL1 (Homo sapiens), P00519 [F317L]
[2] = biological target: Mitogen-activated protein kinase kinase kinase 6 (Homo sapiens) (UniProt O95382)
[3] = biological target: Aurora kinase C (Homo sapiens) (UniProt Q9UQB9)
[4] = biological target: Bone morphogenetic protein receptor type-2 (Homo sapiens) (UniProt Q13873)
[5] = biological target: Calcium/calmodulin-dependent protein kinase type 1 (Homo sapiens) (UniProt Q14012)
[6] = biological target: Cyclin-dependent kinase 8 (Homo sapiens) (UniProt P49336)
[7] = biological target: Cyclin-dependent kinase-like 3 (Homo sapiens) (UniProt Q8IVW4)
[8] = biological target: Macrophage colony-stimulating factor 1 receptor (Homo sapiens) (UniProt P07333)
[9] = biological target: Tyrosine-protein kinase CSK (Homo sapiens) (UniProt P41240)
[10] = biological target: Casein kinase I isoform alpha (Homo sapiens) (UniProt P48729)
[11] = biological target: Casein kinase I isoform gamma-1 (Homo sapiens) (UniProt Q9HCP0)
[12] = biological target: Serine/threonine-protein kinase DCLK2 (Homo sapiens) (UniProt Q8N568)
[13] = biological target: Mitogen-activated protein kinase kinase kinase 12 (Homo sapiens) (UniProt Q12852)
[14] = biological target: Mitogen-activated protein kinase 15 (Homo sapiens) (UniProt Q8TD08)
[15] = system: Receptor-type tyrosine-protein kinase FLT3 (Homo sapiens), P36888 [N841I]
[16] = biological target: Vascular endothelial growth factor receptor 3 (Homo sapiens, UniProt P35916)
[17] = biological target: Tyrosine-protein kinase Fyn (Homo sapiens) (UniProt P06241)
[18] = biological target: Glycogen synthase kinase-3 alpha (Homo sapiens) (UniProt P49840)
[19] = biological target: Glycogen synthase kinase-3 beta (Homo sapiens) (UniProt P49841)
[20] = biological target: Serine/threonine-protein kinase haspin (Homo sapiens) (UniProt Q8TF76)
[21] = biological target: Homeodomain-interacting protein kinase 1 (Homo sapiens) (UniProt Q86Z02)
[22] = biological target: Tyrosine-protein kinase JAK2 (Homo sapiens) (UniProt O60674)
[23] = biological target: Serine/threonine-protein kinase MARK1 (Homo sapiens) (UniProt Q9P0L2)
[24] = biological target: Microtubule-associated serine/threonine-protein kinase 1 (Homo sapiens) (UniProt Q9Y2H9)
[25] = biological target: Dual specificity mitogen-activated protein kinase kinase 2 (Homo sapiens) (UniProt P36507)
[26] = biological target: Dual specificity mitogen-activated protein kinase kinase 3 (Homo sapiens) (UniProt P46734)
[27] = biological target: Dual specificity mitogen-activated protein kinase kinase 4 (Homo sapiens) (UniProt P45985)
[28] = biological target: Serine/threonine-protein kinase Nek7 (Homo sapiens) (UniProt Q8TDX7)
[29] = biological target: Serine/threonine-protein kinase Nek9 (Homo sapiens) (UniProt Q8TD19)
[30] = biological target: Serine/threonine-protein kinase NLK (Homo sapiens) (UniProt Q9UBE8)
[31] = biological target: Platelet-derived growth factor receptor beta (Homo sapiens, UniProt P09619)
[32] = biological target: Phosphatidylinositol 4,5-bisphosphate 3-kinase catalytic subunit gamma isoform (Homo sapiens) (UniProt P48736)
[33] = biological target: Phosphatidylinositol 5-phosphate 4-kinase type-2 gamma (Homo sapiens) (UniProt Q8TBX8)
[34] = biological target: Serine/threonine-protein kinase SIK3 (Homo sapiens) (UniProt Q9Y2K2)
[35] = biological target: Serine/threonine-protein kinase RIO2 (Homo sapiens) (UniProt Q9BVS4)
[36] = biological target: Dual specificity testis-specific protein kinase 1 (Homo sapiens) (UniProt Q15569)
[37] = biological target: Serine/threonine-protein kinase tousled-like 2 (Homo sapiens) (UniProt Q86UE8)
[38] = biological target: Vascular endothelial growth factor receptor 2 (Homo sapiens, UniProt P35968)
[39] = biological target: Wee1-like protein kinase 2 (Homo sapiens) (UniProt P0C1S8)
[40] = biological target: Tyrosine-protein kinase Yes (Homo sapiens) (UniProt P07947)
[41] = biological target: 5-hydroxytryptamine receptor 1D (Homo sapiens) (UniProt P28221); settings: Compound concentration 10.0 uM
[42] = biological target: 5-hydroxytryptamine receptor 5A (Homo sapiens) (UniProt P47898); settings: Compound concentration 10.0 uM
[43] = biological target: D(1A) dopamine receptor (Homo sapiens) (UniProt P21728); settings: Compound concentration 10.0 uM
[44] = biological target: Muscarinic acetylcholine receptor M4 (Homo sapiens) (UniProt P08173); settings: Compound concentration 10.0 uM
[45] = biological target: Beta-3 adrenergic receptor (Homo sapiens, UniProt P13945); settings: Compound concentration 10.0 uM
[46] = Compound concentration 1000.0 nM
[47] = Compound concentration 100.0 nM

Chain of Dual specificity mitogen-activated protein kinase kinase 2 (Homo sapiens) (P36507 whole entry): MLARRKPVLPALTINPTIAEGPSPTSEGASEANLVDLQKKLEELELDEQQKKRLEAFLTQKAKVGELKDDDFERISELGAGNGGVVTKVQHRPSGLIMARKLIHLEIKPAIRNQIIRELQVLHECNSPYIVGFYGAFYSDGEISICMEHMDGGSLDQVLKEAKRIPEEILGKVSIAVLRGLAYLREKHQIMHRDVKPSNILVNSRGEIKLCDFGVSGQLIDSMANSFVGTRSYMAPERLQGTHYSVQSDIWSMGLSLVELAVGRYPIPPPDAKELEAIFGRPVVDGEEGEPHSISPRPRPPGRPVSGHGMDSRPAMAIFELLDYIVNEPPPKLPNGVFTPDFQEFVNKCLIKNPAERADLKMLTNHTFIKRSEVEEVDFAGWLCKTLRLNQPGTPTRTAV
Chain of Tyrosine-protein kinase JAK2 (Homo sapiens) (O60674 whole entry): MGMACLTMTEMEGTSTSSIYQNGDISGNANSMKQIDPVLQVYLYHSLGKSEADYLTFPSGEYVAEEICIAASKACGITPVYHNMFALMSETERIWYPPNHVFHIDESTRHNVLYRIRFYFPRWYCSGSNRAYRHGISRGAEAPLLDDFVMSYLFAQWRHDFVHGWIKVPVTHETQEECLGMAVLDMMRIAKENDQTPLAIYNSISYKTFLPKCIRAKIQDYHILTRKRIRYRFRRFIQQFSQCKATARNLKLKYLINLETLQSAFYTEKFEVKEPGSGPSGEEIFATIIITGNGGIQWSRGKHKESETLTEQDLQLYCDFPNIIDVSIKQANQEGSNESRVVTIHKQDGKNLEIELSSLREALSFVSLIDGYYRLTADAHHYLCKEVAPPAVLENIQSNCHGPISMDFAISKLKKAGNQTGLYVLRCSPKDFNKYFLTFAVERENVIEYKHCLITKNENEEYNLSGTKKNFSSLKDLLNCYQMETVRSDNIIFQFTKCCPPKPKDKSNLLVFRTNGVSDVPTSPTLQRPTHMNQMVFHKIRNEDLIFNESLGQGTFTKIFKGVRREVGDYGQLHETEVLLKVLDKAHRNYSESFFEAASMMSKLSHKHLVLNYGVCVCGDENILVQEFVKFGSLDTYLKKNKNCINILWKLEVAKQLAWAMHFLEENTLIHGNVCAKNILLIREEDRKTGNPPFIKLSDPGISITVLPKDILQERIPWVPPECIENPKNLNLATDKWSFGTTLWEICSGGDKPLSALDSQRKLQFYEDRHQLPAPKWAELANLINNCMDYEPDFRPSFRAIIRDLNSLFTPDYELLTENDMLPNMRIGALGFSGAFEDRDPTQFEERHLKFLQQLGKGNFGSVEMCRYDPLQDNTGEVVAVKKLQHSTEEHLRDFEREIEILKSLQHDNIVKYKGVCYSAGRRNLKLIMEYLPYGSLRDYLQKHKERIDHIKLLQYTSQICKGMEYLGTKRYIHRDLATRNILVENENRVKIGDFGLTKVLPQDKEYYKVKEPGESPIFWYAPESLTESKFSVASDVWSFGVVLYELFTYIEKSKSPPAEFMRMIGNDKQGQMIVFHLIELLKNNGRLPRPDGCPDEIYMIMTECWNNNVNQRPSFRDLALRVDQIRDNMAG
Chain of Calcium/calmodulin-dependent protein kinase type 1 (Homo sapiens) (Q14012 whole entry, looked up): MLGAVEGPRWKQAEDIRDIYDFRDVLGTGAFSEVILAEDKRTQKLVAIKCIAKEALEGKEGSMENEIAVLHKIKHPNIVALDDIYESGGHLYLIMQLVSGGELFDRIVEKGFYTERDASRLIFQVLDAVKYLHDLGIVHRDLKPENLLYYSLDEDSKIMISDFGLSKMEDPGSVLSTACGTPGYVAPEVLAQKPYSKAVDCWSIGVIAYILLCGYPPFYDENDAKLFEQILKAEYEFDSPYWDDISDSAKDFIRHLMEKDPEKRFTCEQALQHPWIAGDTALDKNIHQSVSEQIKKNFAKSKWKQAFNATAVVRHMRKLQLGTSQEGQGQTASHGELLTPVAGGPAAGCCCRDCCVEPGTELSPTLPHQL
Chain of Serine/threonine-protein kinase Nek9 (Homo sapiens) (Q8TD19 whole entry): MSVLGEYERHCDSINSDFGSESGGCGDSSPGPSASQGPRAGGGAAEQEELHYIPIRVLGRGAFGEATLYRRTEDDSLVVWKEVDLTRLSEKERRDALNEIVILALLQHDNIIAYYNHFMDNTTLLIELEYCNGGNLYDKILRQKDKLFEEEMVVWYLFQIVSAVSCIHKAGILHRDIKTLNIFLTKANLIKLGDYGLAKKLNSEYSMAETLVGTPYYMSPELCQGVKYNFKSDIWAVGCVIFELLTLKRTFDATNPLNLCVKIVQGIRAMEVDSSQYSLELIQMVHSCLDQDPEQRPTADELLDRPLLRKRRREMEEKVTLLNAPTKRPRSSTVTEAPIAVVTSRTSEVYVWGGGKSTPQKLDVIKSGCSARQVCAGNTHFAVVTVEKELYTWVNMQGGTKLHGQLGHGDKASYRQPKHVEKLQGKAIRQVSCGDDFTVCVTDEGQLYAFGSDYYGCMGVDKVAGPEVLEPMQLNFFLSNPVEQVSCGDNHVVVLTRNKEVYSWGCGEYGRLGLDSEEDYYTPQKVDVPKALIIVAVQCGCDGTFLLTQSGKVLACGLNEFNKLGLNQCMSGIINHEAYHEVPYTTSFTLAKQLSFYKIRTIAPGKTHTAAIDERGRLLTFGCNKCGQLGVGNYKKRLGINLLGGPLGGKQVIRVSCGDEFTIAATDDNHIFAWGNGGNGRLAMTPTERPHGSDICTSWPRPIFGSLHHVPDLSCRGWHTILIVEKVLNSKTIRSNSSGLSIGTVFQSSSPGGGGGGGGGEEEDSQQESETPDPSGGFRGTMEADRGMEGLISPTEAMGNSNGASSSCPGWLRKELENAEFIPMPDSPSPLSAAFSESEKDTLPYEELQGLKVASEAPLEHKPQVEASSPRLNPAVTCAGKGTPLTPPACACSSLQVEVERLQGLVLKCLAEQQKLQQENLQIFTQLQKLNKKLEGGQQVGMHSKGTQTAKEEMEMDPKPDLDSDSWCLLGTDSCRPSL
Chain of Vascular endothelial growth factor receptor 2 (P35968 whole entry): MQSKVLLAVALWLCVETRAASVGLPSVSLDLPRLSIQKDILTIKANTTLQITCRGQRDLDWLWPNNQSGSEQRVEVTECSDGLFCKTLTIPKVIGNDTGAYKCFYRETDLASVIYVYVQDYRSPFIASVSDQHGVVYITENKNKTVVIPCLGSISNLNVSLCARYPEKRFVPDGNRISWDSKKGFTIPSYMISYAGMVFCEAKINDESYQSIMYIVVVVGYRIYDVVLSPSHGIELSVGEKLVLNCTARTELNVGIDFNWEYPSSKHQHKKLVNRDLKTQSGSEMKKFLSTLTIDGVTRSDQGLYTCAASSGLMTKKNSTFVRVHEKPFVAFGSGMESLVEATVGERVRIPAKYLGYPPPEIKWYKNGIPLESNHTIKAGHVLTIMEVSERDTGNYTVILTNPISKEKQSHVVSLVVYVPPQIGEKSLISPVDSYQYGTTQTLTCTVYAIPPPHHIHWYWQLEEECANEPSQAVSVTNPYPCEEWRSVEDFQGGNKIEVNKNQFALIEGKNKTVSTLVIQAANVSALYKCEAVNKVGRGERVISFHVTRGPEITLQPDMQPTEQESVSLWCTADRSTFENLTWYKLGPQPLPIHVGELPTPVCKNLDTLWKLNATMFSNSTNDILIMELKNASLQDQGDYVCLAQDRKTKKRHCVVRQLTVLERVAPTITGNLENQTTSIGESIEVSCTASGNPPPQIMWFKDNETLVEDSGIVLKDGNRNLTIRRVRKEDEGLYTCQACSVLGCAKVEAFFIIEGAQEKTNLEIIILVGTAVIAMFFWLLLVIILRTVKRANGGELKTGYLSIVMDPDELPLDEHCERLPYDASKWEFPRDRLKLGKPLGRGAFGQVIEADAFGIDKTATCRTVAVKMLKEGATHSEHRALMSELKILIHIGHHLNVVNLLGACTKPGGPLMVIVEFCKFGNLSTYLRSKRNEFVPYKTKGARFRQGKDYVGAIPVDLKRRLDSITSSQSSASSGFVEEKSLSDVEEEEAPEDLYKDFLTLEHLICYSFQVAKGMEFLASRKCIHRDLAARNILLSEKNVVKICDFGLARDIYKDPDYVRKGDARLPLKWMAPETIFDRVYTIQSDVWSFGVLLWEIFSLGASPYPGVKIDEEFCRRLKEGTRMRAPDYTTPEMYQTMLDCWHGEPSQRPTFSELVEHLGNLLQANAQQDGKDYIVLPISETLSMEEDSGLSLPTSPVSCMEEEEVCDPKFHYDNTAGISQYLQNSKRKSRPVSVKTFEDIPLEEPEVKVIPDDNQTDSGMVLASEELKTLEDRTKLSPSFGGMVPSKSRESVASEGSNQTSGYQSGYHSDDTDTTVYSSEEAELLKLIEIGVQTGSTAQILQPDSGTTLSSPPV
Chain of 5-hydroxytryptamine receptor 1D (Homo sapiens) (P28221 whole entry): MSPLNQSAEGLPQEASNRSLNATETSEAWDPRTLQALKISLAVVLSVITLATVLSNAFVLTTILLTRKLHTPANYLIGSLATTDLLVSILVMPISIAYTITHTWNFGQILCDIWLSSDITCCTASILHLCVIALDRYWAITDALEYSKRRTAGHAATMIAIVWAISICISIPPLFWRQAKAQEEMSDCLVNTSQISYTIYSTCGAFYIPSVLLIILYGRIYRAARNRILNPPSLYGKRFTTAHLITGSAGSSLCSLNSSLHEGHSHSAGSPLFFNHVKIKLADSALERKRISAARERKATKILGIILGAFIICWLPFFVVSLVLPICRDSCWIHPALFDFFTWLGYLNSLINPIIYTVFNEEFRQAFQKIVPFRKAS
Chain of 5-hydroxytryptamine receptor 5A (Homo sapiens) (P47898 whole entry): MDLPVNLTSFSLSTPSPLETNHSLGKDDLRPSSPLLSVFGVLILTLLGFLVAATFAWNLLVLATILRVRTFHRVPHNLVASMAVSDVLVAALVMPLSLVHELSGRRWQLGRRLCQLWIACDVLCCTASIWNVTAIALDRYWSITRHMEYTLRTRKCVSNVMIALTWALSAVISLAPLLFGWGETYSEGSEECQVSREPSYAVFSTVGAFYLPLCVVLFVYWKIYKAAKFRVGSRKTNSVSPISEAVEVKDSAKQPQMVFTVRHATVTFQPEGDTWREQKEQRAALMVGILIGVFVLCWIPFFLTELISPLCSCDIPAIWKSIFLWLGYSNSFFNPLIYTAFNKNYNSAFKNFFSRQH

Cc1cc(NC(=O)c2cccc(S(F)(F)(F)(F)F)c2)cc(-n2ccn3nc(-c4cccnc4)cc23)c1 [BAY-309]
residual activity [1, 46]: 72.9%
residual activity [2, 46]: 62.7%
residual activity [3, 46]: 86.7%
residual activity [4, 46]: 59.3%
residual activity [5, 46]: 77.9%
residual activity [6, 46]: 86.2%
residual activity [7, 46]: 100%
residual activity [8, 46]: 100%
residual activity [9, 46]: 100%
residual activity [10, 46]: 50.7%
residual activity [11, 46]: 100%
residual activity [12, 46]: 100%
residual activity [13, 46]: 67.7%
residual activity [14, 46]: 100%
residual activity [15, 46]: 100%
residual activity [16, 46]: 82.3%
residual activity [17, 46]: 81.3%
residual activity [18, 46]: 100%
residual activity [19, 46]: 85.4%
residual activity [20, 46]: 70.9%
residual activity [21, 46]: 49.1%
residual activity [22, 46]: 85.3%
residual activity [23, 46]: 100%
residual activity [24, 46]: 100%
residual activity [25, 46]: 93.3%
residual activity [26, 46]: 62.1%
residual activity [27, 46]: 76%
residual activity [28, 46]: 100%
residual activity [29, 46]: 100%
residual activity [30, 46]: 100%
residual activity [31, 46]: 100%
residual activity [32, 46]: 100%
residual activity [33, 46]: 99.1%
residual activity [34, 46]: 100%
residual activity [35, 46]: 49.7%
residual activity [36, 46]: 91.7%
residual activity [37, 46]: 94.3%
residual activity [38, 46]: 68.3%
residual activity [39, 46]: 100%
residual activity [40, 46]: 100%
inhibition [41]: 15.4%
inhibition [42]: -4.71%
inhibition [43]: 20.6%
inhibition [44]: 14.6%
inhibition [45]: 32.3%

Cc1cc(C)c(-n2ccn3nc(-c4cccnc4)cc23)cc1NC(=O)c1cc(C#N)cc(S(F)(F)(F)(F)F)c1 [BAY-826]
residual activity [1, 47]: 63.3%
residual activity [2, 47]: 100%
residual activity [3, 47]: 100%
residual activity [4, 47]: 89.4%
residual activity [5, 47]: 60.4%
residual activity [6, 47]: 76.7%
residual activity [7, 47]: 81.2%
residual activity [8, 47]: 85.5%
residual activity [9, 47]: 77.9%
residual activity [10, 47]: 67%
residual activity [11, 47]: 91.1%
residual activity [12, 47]: 90.6%
residual activity [13, 47]: 82.5%
residual activity [14, 47]: 94.1%
residual activity [15, 47]: 95.3%
residual activity [16, 47]: 77.6%
residual activity [17, 47]: 97.5%
residual activity [18, 47]: 100%
residual activity [19, 47]: 85.9%
residual activity [20, 47]: 64%
residual activity [21, 47]: 61.6%
residual activity [22, 47]: 81.8%
residual activity [23, 47]: 96.7%
residual activity [24, 47]: 100%
residual activity [25, 47]: 74.4%
residual activity [26, 47]: 81.9%
residual activity [27, 47]: 74.7%
residual activity [28, 47]: 75.5%
residual activity [29, 47]: 72.2%
residual activity [30, 47]: 100%
residual activity [31, 47]: 74.8%
residual activity [32, 47]: 98.5%
residual activity [33, 47]: 89.9%
residual activity [34, 47]: 75.3%
residual activity [35, 47]: 74.2%
residual activity [36, 47]: 85.1%
residual activity [37, 47]: 100%
residual activity [38, 47]: 76.2%
residual activity [39, 47]: 77.4%
residual activity [40, 47]: 70.7%
inhibition [41]: 9.27%
inhibition [42]: 9.57%
inhibition [43]: 4.82%
inhibition [44]: 14.9%
inhibition [45]: 52.3%
